Several values for one entry are separate records, joined by “and”; a condition that tells them apart may be missing. Identical values can stand only once.
Columns and labels:
[1] = Plasma pharmacokinetics of total radioactivity after a single oral dose of [^14C]PPI-1011 100 mg/kg; assay type: in vivo, Sprague-Dawley rats; conditions: single oral 100 mg/kg; for AUCInf / AUClast / Cmax / MRTInf / t1/2 / tmax / AUC Extr: plasma total radioactivity
Method: The pharmacokinetics of [^14C]PPI-1011 were performed in four rats that were surgically implanted with femoral artery catheters (FAC) for blood collection at least 2 days before dosing began. [^14C]PPI-1011 was administered as a single oral dose at 100 mg/kg (200 μCi/kg). Blood samples were collected in EDTA tubes and centrifuged to obtain plasma at 1, 3, 6, 12, 18, 24, 48, and 72 h after drug administration. Duplicate aliquots of plasma (∼25 μl or higher) were transferred to liquid scintillation vials and the weights of sample aliquots were recorded. Aliquots were mixed with Ultima Gold (5 ml) as scintillation fluid and total radioactivity was determined by liquid scintillation counting (LSC) and used to calculate the total radioactive concentration.
The PK calculations of total radioactivity in plasma were analyzed with non-compartmental analyses using Phoenix® WinNonlin® software (version 8.1). Statistical calculations for the other studies were limited to simple parameters such as means or averages, standard deviations (sd), and percentages (%). The amount of compound equivalents (Eq) in samples was calculated as concentrations expressed in μg Eq/g. Dose, MCID™ generated tissue concentrations, pharmacokinetic, and radioanalysis data were compiled using Microsoft Excel for Microsoft 365, Version 2010.

[2] = Mass balance and excretion study, single oral dose 100 mg/kg; assay type: in vivo, Sprague-Dawley rats
Method: Four male rats were administered a single oral dose of [^14C]PPI-1011 at 100 mg/kg (200 μCi/kg). Feces, urine, and the cage rinse samples were collected at pre-determined times up to 168 h post-dose (HPD). The expired air was collected using a carbon dioxide trapping apparatus equipped with airflow apparatus. Expired [^14C]CO2 was collected for two of the four dosed animals for 24 h after the dose in a solution of ethanolamine:2-methoxyethanol (1:3, v/v) in two traps. Rats were sacrificed by overdose of CO2 and each cage was rinsed with 25% ethanol in water (>50 ml) at the end of the study. The cage rinse sample and the expired [^14C]CO2 was stored at 4°C.
Diluted dose solutions, plasma, urine, and cage rinse were analyzed in duplicate by LSC, as described above. The expired CO2 was analyzed the same day it was collected by mixing a 1 ml aliquot of the carbon dioxide absorbents with 5 ml of Hionic-Fluor for radioactivity concentrations with LSC. Feces samples were homogenized in 5-fold volume of purified water then duplicate fecal homogenate aliquots were transferred to Combusto Cones and combusted with a Sample Oxidizer (Model A307, Perkin Elmer) equipped with an Oximate 80 Robotic Automatic Samples. The [^14C]CO2 generated by the combustion was also collected in Carbo Sorb E and radioactivity was determined with PermaFluor as the scintillant using a Tri-Carb LSC.

For CC/C=C\C/C=C\C/C=C\C/C=C\C/C=C\C/C=C\CCC(=O)O[C@H](CO[14CH2]CCCCCCCCCCCCCCC)COC(=O)CCCCC1CCSS1 (stereo partly drawn) [[^14C]PPI-1011], the “Mean total radioactivity in plasma” value ([1]; 1 h) was “approximately 500 ng Eq/g”, the “Mean total radioactivity in plasma” value ([1]; 6 h) was ~27,000 ng Eq/g and the “Mean total radioactivity in plasma” value ([1]; 72 h) was ~4,000 ng Eq/g. For the same molecule, the AUCInf ([1]; Mean of 4 rats) was 867,000 h*ng/ml, the AUClast ([1]; Mean of 4 rats) was 608,000 h*ng/ml and the Cmax ([1]; Mean of 4 rats) was 27,900 ng/ml. For the same molecule, the MRTInf ([1]; Mean of 4 rats) was 55 h, the t1/2 ([1]; Mean of 4 rats) was 40 h and the tmax ([1]; Mean of 4 rats) was 7.5 h. The “AUC Extr” value ([1]; Rat 1) was 6.8%, the AUCInf ([1]; Rat 1) was 753,000 h*ng/ml and the AUClast ([1]; Rat 1) was 702,000 h*ng/ml. The Cmax ([1]; Rat 1) was 30,000 ng/ml, the MRTInf ([1]; Rat 1) was 27 h and the t1/2 ([1]; Rat 1) was 18 h. The tmax ([1]; Rat 1) was 6.0 h, the “AUC Extr” value ([1]; Rat 2) was 31% and the AUCInf ([1]; Rat 2) was 953,000 h*ng/ml. The AUClast ([1]; Rat 2) was 659,000 h*ng/ml, the Cmax ([1]; Rat 2) was 21,500 ng/ml and the MRTInf ([1]; Rat 2) was 61 h. The t1/2 ([1]; Rat 2) was 42 h, the tmax ([1]; Rat 2) was 6.0 h and the “AUC Extr” value ([1]; Rat 3) was 6.5%. The AUCInf ([1]; Rat 3) was 542,000 h*ng/ml, the AUClast ([1]; Rat 3) was 507,000 h*ng/ml and the Cmax ([1]; Rat 3) was 42,500 ng/ml. It also gave an MRTInf ([1]; Rat 3) of 23 h, a t1/2 ([1]; Rat 3) of 19 h and a tmax ([1]; Rat 3) of 6.0 h. The “AUC Extr” value ([1]; Rat 4) was 54%, the AUCInf ([1]; Rat 4) was 1,220,000 h*ng/ml and the AUClast ([1]; Rat 4) was 565,000 h*ng/ml. For the same molecule, the Cmax ([1]; Rat 4) was 17,400 ng/ml, the MRTInf ([1]; Rat 4) was 110 h and the t1/2 ([1]; Rat 4) was 80 h. For the same molecule, the tmax ([1]; Rat 4) was 12 h, the “Dose recovered in feces” value ([2]; 168 h collection period, single oral 100 mg/kg) was 42.51 ± 7.16% and the “Total dose excreted in urine and feces” value ([2]; between 24 and 48 h) was “approximately 6%”. The “Additional excretion in urine and feces” value ([2]; between 48 and 168 h) was < 3%, the “Compound-associated radioactivity absorbed by the body” value ([2]; single oral 100 mg/kg) was “over 50%” and the “Dose found in urine” value ([2]; up to day seven, single oral 100 mg/kg, 100 mg/kg) was 2.40 ± 0.59% and < 2.5%. For the same molecule, the “Dosed radioactivity recovered in urine and feces including cage rinses” value ([2]; within 168 h collection period, single oral 100 mg/kg) was 45.10 ± 7.34%, the “Compound-associated radioactivity excreted in the feces” value ([2]; within the first 24 h) was “approximately 40%” and the “Compound-associated radioactivity excreted in the urine” value ([2]; within the first 24 h) was ~2.5%.

Source: PMC9081329, “Pharmacokinetics, Mass Balance, Excretion, and Tissue Distribution of Plasmalogen Precursor PPI-1011” (Frontiers in Cell and Developmental Biology, 2022)
